Assay [1] concerns growth hormone (GH) secretion. The assay is described as follows: Growth Hormone Inhibition In Rats (pentobarbital-stimulated GH secretion, serum GH by radioimmunoassay). The assay is classed as in vivo. The note with it: male rats, peptide S.C.; for Serum Growth Hormone Conc. Mean ± SEM: pentobarbital 4 mg/rat I.P. How it is done:
This test is a modification of the method of P. Brazeau et al. Endocrinology, 94, 184 (1974). Male rats (weighing 100-110 g.) are divided into three groups of eight rats each. Each rat is administered sodium pentobarbital at a dose of 4 mg/rat (I.P.) to stimulate growth hormone (GH) secretion. Simultaneously, one group of rats receives the test compound (S.C.); the second group receives somatostatin (S.C.); and the third group (control) receives saline (S.C.). Twenty-minutes later, the animals are decapitated and blood samples are collected. The serum concentration of growth hormone (GH) is determined by radioimmunoassay. The mean GH concentration (±standard error of the mean) is calculated for each group. The percent inhibition of GH release (as compared to saline controls) is then calculated for the test compound and for somatostatin. When tested as above-described, the peptides of Example 4, 7, 10, and 14, representative of the peptides of Formula III, gave the results set forth below in Table I: […]

A further assay concerns serum insulin. The assay is described as follows: Insulin Inhibition In Dogs (I.V. infusion of test compound with L-alanine infusion, serum insulin by radioimmunoassay). Format: in vivo, dog. The note with it: for inhibition of insulin concentration: fasted dog, I.V. infusion, doses: Example 4 0.147, Example 7 0.182, Example 10 0.247 μg/kg/min, Example 14 0.092, 0.126, 0.128, 0.198 μg/kg/min and 0.305 mg/kg/min. How it is done: (§1) A normal dog is fasted overnight. An intravenous (I.V.) infusion of the test compound (dissolved in saline) is begun. Thirty minutes thereafter an additional infusion of L-alanine (dissolved in saline) is begun and is continued for a total of 15 minutes so that a total dose of about 1 mmole of L-alanine per kg. body weight is given. Infusion of the test compound is continued for an additional 15 minute period.
(§2) Blood samples are taken periodically before (at -20, -10 and -1 minutes) and after (5, 10, 15, 30, 35, 40, 45, 50, 60, 90, 120 and 150 minutes) the start of the infusion of the test compound. The serum insulin and serum glucagon concentrations in the blood are determined by radioimmunoassay. A plot is made of the glucagon and insulin concentrations versus time. The plot obtained from the test compound is compared to plots obtained from somatostatin and saline (controls) in similar experiments.
(§3) Infusion of L-alanine (in the absence of somatostatin or active test compound) causes an abrupt increase in serum insulin and glucagon concentrations. The concentrations return to basal levels after the L-alanine infusion is terminated. Infusion of somalostatin (alone) causes a decrease in basal serum concentrations of insulin and glucagon.

A further assay deals with serum glucagon. As to the kind of experiment: Glucagon Inhibition In Dogs (I.V. infusion of test compound with L-alanine infusion, serum glucagon by radioimmunoassay). Format: in vivo, dog. Conditions: for inhibition of glucagon concentration: fasted dog, I.V. infusion, doses: Example 4 0.147, Example 7 0.182, Example 10 0.247 μg/kg/min, Example 14 0.092, 0.126, 0.128, 0.198 μg/kg/min and 0.305 mg/kg/min. As to the method: as §1, §2, §3

[2] abbreviates: Dose (mg/kg) 2, 20 min after dosing.
Setting [3] is: Dose (mg/kg) 50, 20 min after dosing.
[4] abbreviates: dog, in the presence of L-alanine.
[5] abbreviates: dog, infusion alone (no L-alanine).

Values joined by “and” are separate entries in the source; they are usually repeats but may differ in a detail not shown here. Identical values can stand only once. Bridge positions count the residues as written; N and C are the ends. Square brackets hold non-standard residues; d marks the D form. Peptide text beside a SMILES is read from it.

Take `CC(C)[C@@H](N)C(=O)NCC(=O)N[C@H]1CSSC[C@@H](C(=O)O)NC(=O)[C@H](CO)NC(=O)[C@H]([C@@H](C)O)NC(=O)[C@@H](Cc2ccccc2)NC(=O)[C@H]([C@@H](C)O)NC(=O)[C@H](CCCCN)NC(=O)[C@@H](Cc2c[nH]c3ccccc23)NC(=O)[C@H](Cc2ccccc2)NC(=O)[C@@H](Cc2ccccc2)NC(=O)[C@H](C)NC(=O)[C@H](CCCCN)NC1=O` [Example 4, D-Valyl-L-glycyl-L-cysteinyl-L-lysyl-L-alanyl-D-phenylalanyl-L-phenylalanyl-D-tryptophyl-L-lysyl-L-threonyl-D-phenyl-alanyl-L-threonyl-L-seryl-L-cysteine cyclic (3->14) disulfide] (H-[dV]GCKA[dF]F[dW]KT[dF]TSC-OH; disulfide 3-14): the results for the Serum Growth Hormone Conc. Mean ± SEM in assay [1] (setting [2]) and in assay [1] (setting [3]) were 72.1 ± 27.3 ng/mL and 31.9 ± 16.6 ng/mL, respectively. Besides, the “% Inhibition of GH release (as compared to saline controls)” value (from here on “% Inhibition of GH release”) came to 27.9% in assay [1] (Dose (mg/kg) 2) and 68.1% in assay [1] (Dose (mg/kg) 50). Further, the “inhibition of insulin concentration” value with serum insulin is “no significant inhibition”. Moreover, the “inhibition of glucagon concentration” value in the assay with serum glucagon is listed as “no significant inhibition”.

`CC(C)[C@@H](N)C(=O)NCC(=O)N[C@H]1CSSC[C@@H](C(=O)O)NC(=O)[C@H](CO)NC(=O)[C@H]([C@@H](C)O)NC(=O)[C@@H](Cc2ccccc2)NC(=O)[C@H]([C@@H](C)O)NC(=O)[C@H](CCCCN)NC(=O)[C@@H](Cc2c[nH]c3ccccc23)NC(=O)[C@H](Cc2ccccc2)NC(=O)[C@H](Cc2ccccc2)NC(=O)[C@H](C)NC(=O)[C@H](CCCCN)NC1=O` [Example 7, D-Valyl-L-glycyl-L-cysteinyl-L-lysyl-L-alanyl-L-phenylalanyl-L-phenylalanyl-D-tryptophyl-L-lysyl-L-threonyl-D-phenyl-alanyl-L-threonyl-L-seryl-L-cysteine cyclic (3->14) disulfide] (H-[dV]GCKAFF[dW]KT[dF]TSC-OH; disulfide 3-14): the values for the Serum Growth Hormone Conc. Mean ± SEM in assay [1] (setting [2]) and in assay [1] (setting [3]) were 94.7 ± 22 ng/mL and 38.7 ng/mL, respectively. Moreover, the “% Inhibition of GH release” value in assay [1] (Dose (mg/kg) 2) amounted to 45.9%; in assay [1] (Dose (mg/kg) 50) it was 77.5%. In the assay with serum insulin, the “inhibition of insulin concentration” value was “no significant inhibition”. The “inhibition of glucagon concentration” value in the assay with serum glucagon is reported as “no significant inhibition”.

Consider `CC(C)C[C@@H]1NC(=O)[C@H](C)NC(=O)[C@H](CCCCN)NC(=O)[C@@H](NC(=O)CNC(=O)[C@H](N)C(C)C)CSSC[C@@H](C(=O)O)NC(=O)[C@H](CO)NC(=O)[C@H]([C@@H](C)O)NC(=O)[C@@H](Cc2ccccc2)NC(=O)[C@H]([C@@H](C)O)NC(=O)[C@H](CCCCN)NC(=O)[C@@H](Cc2c[nH]c3ccccc23)NC(=O)[C@H](Cc2ccccc2)NC1=O` [Example 10, D-Valyl-L-glycyl-L-cysteinyl-L-lysyl-L-alanyl-L-leucyl-L-phenylalanyl-D-tryptophyl-L-lysyl-L-threonyl-D-phenylalanyl-L-threonyl-L-seryl-L-cysteine cyclic (3->14) disulfide] (H-[dV]GCKALF[dW]KT[dF]TSC-OH; disulfide 3-14), for which the Serum Growth Hormone Conc. Mean ± SEM in assay [1] (setting [2]) was 82.8 ± 19.6 ng/mL; in assay [1] (setting [3]) it was 93.5 ± 22.6 ng/mL. For the same compound, the “% Inhibition of GH release” value is reported as 37.3% in assay [1] (Dose (mg/kg) 2) and 29.3% in assay [1] (Dose (mg/kg) 50). The “inhibition of insulin concentration” value in the assay on serum insulin is recorded as “no significant inhibition”. The “inhibition of glucagon concentration” value with serum glucagon is recorded as “no significant inhibition”.

`C[C@H](N)C(=O)N[C@H](C)C(=O)N[C@H]1CSSC[C@@H](C(=O)O)NC(=O)[C@H](CO)NC(=O)[C@H]([C@@H](C)O)NC(=O)[C@@H](Cc2ccccc2)NC(=O)[C@H]([C@@H](C)O)NC(=O)[C@H](CCCCN)NC(=O)[C@@H](Cc2c[nH]c3ccccc23)NC(=O)[C@H](Cc2ccccc2)NC(=O)[C@H](Cc2ccccc2)NC(=O)[C@H](C)NC(=O)[C@H](CCCCN)NC1=O` [Example 14, L-Alanyl-D-alanyl-L-cysteinyl-L-lysyl-L-alanyl-L-phenylalanyl-L-phenylalanyl-D-tryptophyl-L-lysyl-L-threonyl-D-phenylalanyl-L-threonyl-L-seryl-L-cysteine cyclic (3->14) disulfide] (H-A[dA]CKAFF[dW]KT[dF]TSC-OH; disulfide 3-14): the Serum Growth Hormone Conc. Mean ± SEM in assay [1] (setting [2]) was found to be 132 ± 69.4 ng/mL; in assay [1] (setting [3]), 77.8 ± 19.6 ng/mL. Further, the “% Inhibition of GH release” value worked out at 20% in assay [1] (Dose (mg/kg) 2) and 53% in assay [1] (Dose (mg/kg) 50). Further, in the assay on serum insulin, the “inhibition of insulin concentration” value was “no significant inhibition”. Further, the “inhibition of glucagon concentration” value in the assay with serum glucagon is reported as “no significant inhibition”.

Take `C[C@H](N)C(=O)NCC(=O)N[C@H]1CSSC[C@@H](C(=O)O)NC(=O)[C@H](CO)NC(=O)[C@H]([C@@H](C)O)NC(=O)[C@H](Cc2ccccc2)NC(=O)[C@H]([C@@H](C)O)NC(=O)[C@H](CCCCN)NC(=O)[C@H](Cc2c[nH]c3ccccc23)NC(=O)[C@H](Cc2ccccc2)NC(=O)[C@H](Cc2ccccc2)NC(=O)[C@H](CC(N)=O)NC(=O)[C@H](CCCCN)NC1=O` [Somatostatin]: the “% Inhibition of GH release” value in assay [1] (Dose (mg/kg) 2) is 0%; in assay [1] (Dose (mg/kg) 50), 86.6% and 84.9% and 89.7% and 93%. Also, the “effect on the increase in insulin concentration induced by L-alanine” value in the assay with serum insulin (setting [4]) was “inhibits the increase”. Also, the “effect on basal serum concentration of insulin” value in the assay with serum insulin (setting [5]) is “decrease”. Also, the “effect on the increase in glucagon concentration induced by L-alanine” value in the assay on serum glucagon (setting [4]) was “inhibits the increase”. Further, the “effect on basal serum concentration of glucagon” value in the assay on serum glucagon (setting [5]) is “decrease”.

(Values after patent US4202802A, “Peptides related to somatostatin” (Eli Lilly and Company, priority 1978, dated 1980).)
